From patent US20250243160A1, “INDOLE DERIVATIVES FOR TARGETING AUTOPHAGY” (Automera PTE. LTD, priority 2024, published 2025) come the findings set out here.

Recombinant p62 protein, sequence (Q13501 whole entry, species assumed): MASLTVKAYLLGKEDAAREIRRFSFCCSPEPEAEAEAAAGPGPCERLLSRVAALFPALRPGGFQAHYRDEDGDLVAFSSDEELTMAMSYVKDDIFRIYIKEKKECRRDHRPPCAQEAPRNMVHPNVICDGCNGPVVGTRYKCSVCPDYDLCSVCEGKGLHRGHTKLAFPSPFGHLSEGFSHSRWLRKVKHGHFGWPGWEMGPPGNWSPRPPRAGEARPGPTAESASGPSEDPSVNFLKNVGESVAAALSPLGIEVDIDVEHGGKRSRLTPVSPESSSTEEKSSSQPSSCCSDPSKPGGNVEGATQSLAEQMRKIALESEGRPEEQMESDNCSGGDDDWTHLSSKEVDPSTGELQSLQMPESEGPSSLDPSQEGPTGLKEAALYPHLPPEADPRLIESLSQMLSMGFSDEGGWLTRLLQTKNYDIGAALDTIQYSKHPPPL

The experiment addresses Recombinant p62 protein (Homo sapiens, UniProt Q13501). The experiment can be described thus: Surface plasmon resonance (SPR) compound binding to p62. The note with it: 15° C. On the procedure:
Recombinant p62 protein was buffer exchanged into Biacore SPR running buffer (Cytiva 100671) using the Slide-A-Lyzer Mini Dialysis system 7K MWCO (Thermo Fisher Scientific, Cat no. 69560). The final protein concentration was determined using the Nanodrop One spectrophotometer (Thermo Fisher Scientific, cat no. ND-ONE-W), with calibration for the dialysis buffer.
The prepared protein was diluted in sodium acetate buffer (NaAc, pH 5.5, Cytiva) to concentrations ranging from approximately 0.25-40 μg/mL. Post-immobilization, the protein required approximately 16 hours of equilibration in running buffer supplemented with 1% DMSO at 15° C. to ensure adequate surface equilibration and protein reorganization.
All SPR experiments were conducted at a constant temperature of 15° C. The SPR chip surface was activated using EDC/NHS for a contact time of 6-10 min at a flow rate of 10 μL/min. This was followed by protein immobilization for 2100 seconds and ethanolamine capping for 420 seconds, both at the same flow rate. Immediately after immobilization, the NH2-REEE peptide was analyzed in Single Cycle Kinetics mode (SCK) to verify surface activity, ensuring it binds the sample with the published affinity (˜20 μM by SPR).
For general compound binding studies, experiments were performed at 15° C. using a running buffer composed of 10 mM HEPES, 150 mM NaCl, 1 mM DTT, 0.05% Tween 20, and 1% DMSO at pH 7.4. The test compound was initially prepared at a 20 mM concentration in DMSO and subsequently titrated in 2-fold dilutions. For each assay, 2 μL of the compound was mixed with 198 μL of the running buffer, and the mixture was thoroughly pipetted approximately 15 times for homogenization.
A series of blank injections (0 μM concentration) were included for double referencing, with at least 8 or 16 per plate depending on the format. Typical injection parameters were 120 seconds for association and 180 seconds for dissociation at a flow rate of […]. A four-point solvent correction was prepared with DMSO concentrations ranging from 2% to 0.5% in the buffer. Post each compound injection, the system's needles were washed with 50% DMSO.
Analysis of the SPR data was conducted using the Cytiva Evaluation software. The binding levels at the late time-point of each interaction were corrected for reference, then normalized to percentage bound values to account for variations in immobilization levels, protein molecular weight, and compound molecular weight.
Compound binding studies were carried out according to experimental procedures above and SPR % occupancy was determined and summarized in Table 7.
A general note: Surface plasmon resonance follows binding to a sensor surface in real time, without labels.
For the molecule `OCCNCc1cc(F)cc2c1ccn2Cc1ccc(F)cc1` [Compound 44], the receptor occupancy at 100 µM is greater than 70%.
With `OCCNCc1cccc2c1ccn2Cc1ccccc1` [Compound 1, 2-(((1-benzyl-1H-indol-4-yl)methyl)amino)ethan-1-ol], the receptor occupancy at 100 µM was 30 to 70%.
As for `OCCNCc1cc(F)cc2c1ccn2Cc1ccc(Cl)cc1` [Compound 45, 2-(((1-(4-chlorobenzyl)-6-fluoro-1H-indol-4-yl)methyl)amino)ethan-1-ol], the receptor occupancy at 100 µM was 30 to 70%.
